Laboratory results reported in US20030114666A1, “Antibacterial agents” (priority 2001, published 2003).
Read-outs that look alike come from different tables or passages of the source.

Assays:
[1] = system: E. coli B90; assay: Test A antibacterial assay, standard microtitration (MIC); assay type: cell-based; conditions: Gram negative, E. coli B90
Experimental: (§1) Test A-Antibacterial Assay
(§2) The compounds of the present invention were tested against an assortment of Gram-negative and Gram-positive organisms using standard microtitration techniques (Cohen, et al., Antimicrob. Agents Chemother., 1985;28:766; Heifetz, et al., Antimicrob. Agents Chemother:, 1974;6:124). […]

[2] = system: E. coli MC 4100; assay: as above; assay type: cell-based; conditions: Gram negative, E. coli MC 4100
Experimental: as §1, §2

[3] = system: E. coli Tol C; assay: as above; assay type: cell-based; conditions: for Minimum Inhibitory Concentrations E. coli Tol C: Gram negative
Experimental: as §1, §2

[4] = system: E. faecalis RB1; assay: as above; assay type: cell-based; conditions: Gram positive, E. faecalis RB1
Experimental: as §1, §2

[5] = system: S. aureus 29213; assay: as above; assay type: cell-based; conditions: Gram positive, S. aureus 29213
Experimental: as §1, §2

[6] = system: S. pyogenes C203; assay: as above; assay type: cell-based; conditions: Gram positive, S. pyogenes C203
Experimental: as §1, §2

[7] = target: E. coli gyrase (Escherichia coli, UniProt P0AES4+P0AES6); assay: biochemical
[8] = Test E pharmacokinetic behavior in rats; assay type: in vivo; conditions: male, Wistar, plasma; Rat; 1 mg/kg IV infusion in D5W over 5 minutes
Experimental: (§3) Test E-Pharmacokinetic Behavior or Quinazolinediones vs. 3-Aminoquinazolinediones
(§4) The compounds of the present invention were tested for pharmacokinetic behavior against the structurally related 3-aminoquinazolinediones in rats, dogs and monkeys. The representative result of the evaluation for compound 4b is shown in Table 6 compared to a structurally similar 3-aminoquinazolinedione.
In this study, compounds were administered to male Wistar rats and were dosed at 1 mg/kgIV infusion in D5W over 5 minutes. Blood samples were drawn at 0, 0.083, 0.167, 0.25, 0.5, 1, 2, 4, 6, 8, 12, and 24 hours post dose.
(§5) Plasma from all samples were harvested following centrifugaltion and stored frozen until plasma concentrations were determined using liquid chromatography/mass spectroscopy methods. The concentration/time profile for each compound in each animal species was analyzed using non-compartmental pharmacokinetic analysis approach. In the table, clearance is defined as the volume of fluid cleared of drug from the body per unit of time. Clearance is a quantitative assessment of drug elimination. Drug elimination is the irreversible removal of drug from the body by all routes of elimination.

[9] = Test E pharmacokinetic behavior in dogs; assay type: in vivo; conditions: male, beagle, plasma; Dog; 5 mg/kg IV infusion over 15 minutes
Experimental: as §3, §4
Male Beagle Dogs were dosed with compound dissolved in D5W at 5 mg/kg IV Infusion over 15 minutes. Blood samples will be collected at 0, 0.167, 0.25, 0.33, 0.5, 1, 2, 4, 6, 8, 12 and 24 hours post dose.
as §5

[10] = Test E pharmacokinetic behavior in monkeys; assay type: in vivo, Male Cynomologous Monkeys; conditions: male, plasma; Monkey; 5 mg/kg IV infusion over 15 minutes
Experimental: as §3, §4
Male Cynomologous Monkeys were dosed with compound dissolved in D5W at 5 mg/kg IV Infusion over 15 minutes. Blood samples were collected at 0, 0.167, 0.25, 0.33, 0.5, 1, 2, 4, 6, 8, 12 and 24 hours post dose.
as §5

[11] = system: N. gonorrhoeae 2637; assay: Test D cross resistance antibacterial assay (MIC); assay type: cell-based, Neisseria gonorrhoeae; conditions: parent strain, derivative of MS11
Experimental: (§6) Test D-Cross Resistance Antibacterial Assay
(§7) The compounds of the present invention were tested against an assortment of ciprofloxacin resistant E. coli and S. aureus organisms described below using standard microtitration techniques (Cohen, et al., Antimicrob. Agents Chemother., 1985;28:766; Heifetz, et al., Antimicrob. Agents Chemother., 1974;6:124). […].
N. gonorrhoeae 2637 (N.g. 2637) is a derivative of Neisseria gonorrhoeae MS11 containing a TAC-LAC recA to allow for control of homologous recombination [Tonjum T. et al. Molecular Microbiology 1995, 16, 451-64].

[12] = system: N. gonorrhoeae 2709; assay: Test D cross resistance antibacterial assay (MIC); assay type: cell-based, Neisseria gonorrhoeae
Experimental: as §6, §7
N. gonorrhoeae 2709 (N.g. 2709): Isogenic to N. gonorrhoeae 2637 contains gyrA quinolone-resistant determining region (QRDR) mutations (S91F D95G).

[13] = system: N. gonorrhoeae 2693; assay: Test D cross resistance antibacterial assay (MIC); assay type: cell-based, Neisseria gonorrhoeae
Experimental: as §6, §7
N. gonorrhoeae 2693 (N.g. 2693): Isogenic to N. gonorrhoeae 2709 containing parC QRDR mutations [P88S and E91K].

[14] = system: S. aureus UC-76; assay: Test D cross resistance antibacterial assay (MIC); assay type: cell-based; conditions: wild type sensitive laboratory strain
Experimental: as §6, §7
S. aureus UC-76: Typical sensitive laboratory strain (Wild type).

[15] = system: S. aureus 2552; assay: Test D cross resistance antibacterial assay (MIC); assay type: cell-based
Experimental: as §6, §7

[16] = system: S. aureus 2554; assay: Test D cross resistance antibacterial assay (MIC); assay type: cell-based
Experimental: as §6, §7
S. aureus 2554: Isogenic to S. aureus 2552, with point mutation at position 80 of grlA subunit.

[17] = system: S. aureus 2558; assay: Test D cross resistance antibacterial assay (MIC); assay type: cell-based
Experimental: as §6, §7
S. aureus 2558: Isogenic to S. aureus 2554, with point mutation at position 84 of gyrA subunit.

[18] = supercoiling of relaxed pBR322, 30 minutes at 37° C.
[19] = relative to MIC against N. g. 2637
[20] = relative to MIC against S. aureus UC-76

Sequence of E. coli gyrase (P0AES4 whole entry, the tested form may be a part, one chain of several): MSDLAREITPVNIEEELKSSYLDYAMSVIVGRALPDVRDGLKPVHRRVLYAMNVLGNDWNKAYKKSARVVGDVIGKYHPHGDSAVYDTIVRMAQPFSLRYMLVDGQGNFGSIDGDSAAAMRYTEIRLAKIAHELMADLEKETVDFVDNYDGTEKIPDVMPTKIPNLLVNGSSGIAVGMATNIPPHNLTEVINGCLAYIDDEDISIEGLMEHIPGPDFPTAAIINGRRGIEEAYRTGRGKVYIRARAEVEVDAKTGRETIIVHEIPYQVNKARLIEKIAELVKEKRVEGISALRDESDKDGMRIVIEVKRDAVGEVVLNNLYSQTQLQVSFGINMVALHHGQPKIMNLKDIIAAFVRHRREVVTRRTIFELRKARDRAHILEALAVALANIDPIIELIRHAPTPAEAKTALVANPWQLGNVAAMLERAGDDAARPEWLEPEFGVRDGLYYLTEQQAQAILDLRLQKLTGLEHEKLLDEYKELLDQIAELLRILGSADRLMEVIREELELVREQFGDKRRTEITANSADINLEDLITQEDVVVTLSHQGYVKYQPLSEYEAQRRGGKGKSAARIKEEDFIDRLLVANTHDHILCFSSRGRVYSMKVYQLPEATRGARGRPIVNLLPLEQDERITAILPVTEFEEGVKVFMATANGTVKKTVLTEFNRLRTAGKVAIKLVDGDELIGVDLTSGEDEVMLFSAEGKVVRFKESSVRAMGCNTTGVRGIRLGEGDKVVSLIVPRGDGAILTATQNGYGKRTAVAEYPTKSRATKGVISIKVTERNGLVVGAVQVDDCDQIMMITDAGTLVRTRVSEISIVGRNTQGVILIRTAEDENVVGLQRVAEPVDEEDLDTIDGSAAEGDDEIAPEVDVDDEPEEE

Molecule: Cc1c(-c2csc(CN)c2)c(F)cc2c(=O)[nH]c(=O)n(C3CC3)c12.Cl [Example 22j, 7-(5-Aminomethylthiophen-3-yl)-1-cyclopropyl-6-fluoro-8-methyl-1H-quinazoline-2,4-dione Hydrochloride]
- MIC ([1]; Escherichia coli, read-out: Minimum Inhibitory Concentrations E. coli B90): 1 µg/mL
- MIC ([2]; Escherichia coli, MC4100, read-out: Minimum Inhibitory Concentrations E. coli MC 4100): 8 µg/mL
- MIC ([3]; Escherichia coli, read-out: Minimum Inhibitory Concentrations E. coli Tol C): 1 µg/mL
- MIC ([4]; Enterococcus faecalis, read-out: Minimum Inhibitory Concentrations E. faecalis RB1): 2 µg/mL
- MIC ([5]; Staphylococcus aureus, read-out: Minimum Inhibitory Concentrations S. aureus 29213): 1 µg/mL
- MIC ([6]; Streptococcus pyogenes, read-out: Minimum Inhibitory Concentrations S. pyogenes C203): 0.25 µg/mL
- IC50 [7, 18]: 1400 nM

Molecule: Cc1c(N2CC[C@@H]([C@H](C)N)C2)c(F)cc2c(=O)[nH]c(=O)n(C3CC3)c12 [drawing 387]
- clearance [8]: 47 mL/min/kg
- half-life [8]: 1.9 h
- clearance [9]: 8.7 mL/min/kg
- half-life [9]: 6.3 h
- clearance [10]: 17 mL/min/kg
- half-life [10]: 4.1 h

Molecule: 7-[(R)-3-(1-Aminocyclopropyl)pyrrolidin-1-yl]-1-cyclopropyl-6-fluoro-8-methyl-1 h-quinazolinedione Hydrochloride [Example 26b]
- Minimum Inhibitory Concentrations E. coli B90 [1]: 0.25 µg/mL
- Minimum Inhibitory Concentrations E. coli MC 4100 [2]: 2.0 µg/mL
- Minimum Inhibitory Concentrations E. coli Tol C [3]: 0.13 µg/mL
- Minimum Inhibitory Concentrations E. faecalis RB1 [4]: 0.13 µg/mL
- Minimum Inhibitory Concentrations S. aureus 29213 [5]: 0.25 µg/mL
- Minimum Inhibitory Concentrations S. pyogenes C203 [6]: 0.03 µg/mL
- IC50 [7]: 1600 nM

Molecule: Cc1c(N2CCC(C(N)CF)C2)c(F)cc2c(=O)[nH]c(=O)n(C3CC3)c12.Cl (stereo not shown) [Example 19f, 7-[3-(1-Amino-2-fluoroethyl)pyrrolidin-1-yl]-1-cyclopropyl-6-fluoro-8-methyl-1H-quinazolinedione Hydrochloride]
- Minimum Inhibitory Concentrations E. coli B90 [1]: 0.25 µg/mL
- Minimum Inhibitory Concentrations E. coli MC 4100 [2]: 4.0 µg/mL
- Minimum Inhibitory Concentrations E. coli Tol C [3]: 0.13 µg/mL
- Minimum Inhibitory Concentrations E. faecalis RB1 [4]: 0.06 µg/mL
- Minimum Inhibitory Concentrations S. aureus 29213 [5]: 0.13 µg/mL
- Minimum Inhibitory Concentrations S. pyogenes C203 [6]: 0.06 µg/mL
- IC50 [7, 18]: 1800 nM

Molecule: 1-Cyclopropyl-7-(5,5-difluoro-4-hydroxy-4,5,6,7-tetrahydrobenzo[b]thiophen-2-yl)-6-fluoro-8-methyl-1H-quinazolinedione [Example 23b]
- Minimum Inhibitory Concentrations E. coli B90 [1]: 0.13 µg/mL
- Minimum Inhibitory Concentrations E. coli MC 4100 [2]: 16.0 µg/mL
- Minimum Inhibitory Concentrations E. coli Tol C [3]: <0.06 µg/mL
- Minimum Inhibitory Concentrations E. faecalis RB1 [4]: 1.0 µg/mL
- Minimum Inhibitory Concentrations S. aureus 29213 [5]: 0.5 µg/mL
- Minimum Inhibitory Concentrations S. pyogenes C203 [6]: 2.0 µg/mL
- IC50 [7, 18]: 1000 nM

Molecule: 7-(3-[1-Amino-1-(2-fluorophenyl)methyl]pyrrolidin-1-yl}-1-cyclopropyl-6-fluoro-6-methyl-1H-quinazolinedione Hydrochloride [Example 7j]
- Minimum Inhibitory Concentrations E. coli B90 [1]: 0.25 µg/mL
- Minimum Inhibitory Concentrations E. coli MC 4100 [2]: 8.0 µg/mL
- Minimum Inhibitory Concentrations E. coli Tol C [3]: 0.06 µg/mL
- Minimum Inhibitory Concentrations E. faecalis RB1 [4]: 0.25 µg/mL
- Minimum Inhibitory Concentrations S. aureus 29213 [5]: 0.13 µg/mL
- Minimum Inhibitory Concentrations S. pyogenes C203 [6]: 0.03 µg/mL
- IC50 [7]: 800 nM
- Minimum Inhibitory Concentrations N. g. 2637 [11]: 0.13 µg/mL
- Minimum Inhibitory Concentrations N. g. 2709 ([12]; gyrA QRDR mutations (S91F D95G)): 0.5 µg/mL
- MIC fold increase N. g. 2709 (in parentheses) [12, 19]: (4x)
- Minimum Inhibitory Concentrations N. g. 2693 ([13]; gyrA plus parC QRDR mutations [P88S and E91K]): 1.0 µg/mL
- MIC fold increase N. g. 2693 (in parentheses) [13, 19]: (8x)
- Minimum Inhibitory Concentrations S. aureus UC-76 [14]: 0.06 µg/mL
- MIC fold increase S. aureus 2552 (in parentheses) [15, 20]: (1x)
- Minimum Inhibitory Concentrations S. aureus 2552 ([15]; upregulated norA pump): 0.06 µg/mL
- Minimum Inhibitory Concentrations S. aureus 2554 ([16]; norA plus point mutation at position 80 of grlA): 0.06 µg/mL
- MIC fold increase S. aureus 2554 (in parentheses) [16, 20]: (1x)
- Minimum Inhibitory Concentrations S. aureus 2558 ([17]; norA, grlA plus point mutation at position 84 of gyrA): 0.06 µg/mL
- MIC fold increase S. aureus 2558 (in parentheses) [17, 20]: (1x)

Molecule: 7-[(R)-3-((S)-1-Aminoethyl)pyrrolidin-1-yl]-1-cyclopropyl-6-fluoro-5,8-dimethyl-1H-quinazolinedione Hydrochloride [Example 41c]
- Minimum Inhibitory Concentrations E. coli B90 [1]: 0.25 µg/mL
- Minimum Inhibitory Concentrations E. coli MC 4100 [2]: 2.0 µg/mL
- Minimum Inhibitory Concentrations E. coli Tol C [3]: 0.06 µg/mL
- Minimum Inhibitory Concentrations E. faecalis RB1 [4]: 0.03 µg/mL
- Minimum Inhibitory Concentrations S. aureus 29213 [5]: 0.03 µg/mL
- Minimum Inhibitory Concentrations S. pyogenes C203 [6]: 0.008 µg/mL
- IC50 [7]: 600 nM

Molecule: Cc1c(N2CC[C@@H]([C@H](C)N)C2)c(F)cc2c(=O)n(N)c(=O)n(C3CC3)c12 [reference compound]
- clearance [8]: 62 mL/min/kg
- half-life [8]: 2 h
- clearance [9]: 21 mL/min/kg
- half-life [9]: 2.4 h
- clearance [10]: 24 mL/min/kg
- half-life [10]: 2.2 h

Molecule: CC1COc2c(N3CC[C@@H]([C@H](C)N)C3)c(F)c(N)c3c(=O)[nH]c(=O)n1c23.Cl (stereo partly drawn) [Example 16d, 7-Amino-9-[9-(R)-3-((S)-1-aminoethyl)pyrrolidin-1-yl)-8-fluoro-3-methyl-2,3-dihydro-1-oxa-3a,5-diazaphenalene-4,6-dione Hydrochloride]
- Minimum Inhibitory Concentrations E. coli B90 [1]: 16.0 µg/mL
- Minimum Inhibitory Concentrations E. coli MC 4100 [2]: >64.0 µg/mL
- Minimum Inhibitory Concentrations E. coli Tol C [3]: 4.0 µg/mL
- Minimum Inhibitory Concentrations E. faecalis RB1 [4]: 1.0 µg/mL
- Minimum Inhibitory Concentrations S. aureus 29213 [5]: 1.0 µg/mL
- Minimum Inhibitory Concentrations S. pyogenes C203 [6]: 0.5 µg/mL
- IC50 [7]: 25000 nM
